Results: ChEMBL document CHEMBL1201862, “PubChem BioAssay data set” (2004)
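48-hour exposure; five concentrations; linearly interpolated endpoints. GI50 marks 50% less growth.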 Calls of active or inactive are those of the source. Cut-off read from the data, not from the text of the source: active = GI50 up to about 1.1 µM and inactive = higher. Where a SMILES comes first, the peptide text is derived from it. [ ]: non-standard residue; d: D form. The star is where a group is joined. ξ: configuration not given here. ξD = NC(CC(=O)O)C(=O)O; Ac3c = NC1(C(=O)O)CC1; Boc = CC(C)(C)OC(=O)*; OBn = c1ccc(CO*)cc1

What was measured:
Assay in all cases: NCI anticancer screen, dose series, 48 h
OVCAR-3 = test system: OVCAR-3
OVCAR-8 = test system: OVCAR-8
NCI-H23 = test system: NCI-H23
T47D = test system: T47D
UACC-62 = test system: UACC-62
EKVX = test system: EKVX
SW-620 = test system: SW-620
LOX IMVI = test system: LOX IMVI
SF-295 = test system: SF-295
SNB-75 = test system: SNB-75
OVCAR-5 = test system: OVCAR-5
SK-OV-3 = test system: SK-OV-3
UO-31 = test system: UO-31
UACC-257 = test system: UACC-257
HT-29 = test system: HT-29
ACHN = test system: ACHN
OVCAR-4 = test system: OVCAR-4
RPMI-8226 = test system: RPMI-8226
HCC 2998 = test system: HCC 2998
PC-3 = test system: PC-3
COLO 205 = test system: COLO 205
HL-60 = test system: HL-60
SK-MEL-5 = test system: SK-MEL-5
HOP-62 = test system: HOP-62
Hs-578T = test system: Hs-578T
HCT-116 = test system: HCT-116
SF-268 = test system: SF-268
NCI-H226 = test system: NCI-H226
NCI-H522 = test system: NCI-H522
NCI/ADR-RES = test system: NCI/ADR-RES
DU-145 = test system: DU-145
K562 = test system: K562
SN12C = test system: SN12C
MCF7 = test system: MCF7
CCRF-CEM = test system: CCRF-CEM
TK-10 = test system: TK-10
A549 = test system: A549
M14 = test system: M14
U-251 = test system: U-251
786-0 = test system: 786-0
MDA-MB-231 = test system: MDA-MB-231
IGROV-1 = test system: IGROV-1
RXF 393 = test system: RXF 393
MDA-N = test system: MDA-N
MOLT-4 = test system: MOLT-4
CAKI-1 = test system: CAKI-1
BT-549 = test system: BT-549
SNB-19 = test system: SNB-19
Malme-3M = test system: Malme-3M
SK-MEL-28 = test system: SK-MEL-28
HCT-15 = test system: HCT-15
MDA-MB-435 = test system: MDA-MB-435
SK-MEL-2 = test system: SK-MEL-2
KM12 = test system: KM12
A498 = test system: A498
SF-539 = test system: SF-539
HOP-92 = test system: HOP-92
NCI-H460 = test system: NCI-H460

Measured: GI50

NCCNC(=S)S
inactive: OVCAR-3 52.7 µM | OVCAR-8 57.5 µM | NCI-H23 > 100 µM | T47D > 100 µM | UACC-62 > 100 µM | EKVX > 100 µM | SW-620 59.2 µM | LOX IMVI 51.8 µM | SF-295 > 100 µM | SNB-75 > 100 µM | OVCAR-5 > 100 µM | SK-OV-3 > 100 µM | UO-31 > 100 µM | UACC-257 > 100 µM | HT-29 85.9 µM | ACHN > 100 µM | OVCAR-4 > 100 µM | RPMI-8226 24.9 µM | HCC 2998 > 100 µM | PC-3 > 100 µM | COLO 205 > 100 µM | HL-60 44.7 µM | SK-MEL-5 > 100 µM | HOP-62 > 100 µM | Hs-578T 7.31 µM | HCT-116 > 100 µM | SF-268 4.9 µM | NCI-H226 > 100 µM | NCI-H522 3.48 µM | NCI/ADR-RES > 100 µM | DU-145 > 100 µM | K562 36.6 µM | SN12C 68.9 µM | MCF7 > 100 µM | CCRF-CEM 22.4 µM | TK-10 > 100 µM | A549 > 100 µM | M14 > 100 µM | U-251 > 100 µM | 786-0 33.8 µM | MDA-MB-231 > 100 µM | IGROV-1 > 100 µM | RXF 393 > 100 µM | MDA-N > 100 µM | MOLT-4 34.9 µM | CAKI-1 > 100 µM | BT-549 > 100 µM | SNB-19 > 100 µM | Malme-3M 11.9 µM | SK-MEL-28 > 100 µM | MDA-MB-435 > 100 µM | SK-MEL-2 > 100 µM | KM12 > 100 µM | A498 > 100 µM
58.2 µM: HCT-15

O=C(N/N=C/C=C/c1ccc([N+](=O)[O-])o1)c1ccc(Br)s1
13.2 µM: HCT-15
inactive: OVCAR-3 16.1 µM | OVCAR-8 16.9 µM | NCI-H23 14.9 µM | T47D 28.4 µM | UACC-62 23.2 µM | EKVX 31.2 µM | SW-620 16.1 µM | LOX IMVI 19.9 µM | SF-295 > 100 µM | SNB-75 > 100 µM | SF-539 26.8 µM | OVCAR-5 26.3 µM | SK-OV-3 > 100 µM | UO-31 21 µM | HT-29 17 µM | ACHN 16.3 µM | OVCAR-4 18.9 µM | RPMI-8226 3.78 µM | HOP-92 10.8 µM | PC-3 18.7 µM | COLO 205 17 µM | HL-60 34.1 µM | SK-MEL-5 18.6 µM | HOP-62 51.2 µM | Hs-578T 6.73 µM | HCT-116 3.48 µM | SF-268 28.8 µM | NCI-H226 22.2 µM | NCI/ADR-RES 25.1 µM | DU-145 30.3 µM | K562 24.5 µM | SN12C 29.6 µM | MCF7 16.3 µM | CCRF-CEM 9.2 µM | TK-10 20 µM | A549 82.8 µM | M14 20.4 µM | U-251 28.1 µM | 786-0 19.1 µM | MDA-MB-231 22.8 µM | IGROV-1 6.76 µM | RXF 393 15.6 µM | MDA-N 20.6 µM | MOLT-4 13.3 µM | CAKI-1 27.9 µM | BT-549 25.3 µM | SNB-19 24 µM | Malme-3M 14.9 µM | SK-MEL-28 22.4 µM | MDA-MB-435 25.4 µM | SK-MEL-2 23.3 µM | NCI-H460 42.7 µM | KM12 17.8 µM | A498 32.1 µM

COC(=O)Nc1nc2cc(NS(=O)(=O)c3ccc(F)cc3)ccc2[nH]1
8.22 µM: HCT-15
inactive: OVCAR-3 2.8 µM | OVCAR-8 35 µM | NCI-H23 21.8 µM | T47D > 100 µM | UACC-62 9.23 µM | EKVX 31.3 µM | SW-620 6.27 µM | LOX IMVI 48.1 µM | SF-295 14.5 µM | SNB-75 6.49 µM | SF-539 12.2 µM | OVCAR-5 45.2 µM | SK-OV-3 13.1 µM | UO-31 37.6 µM | HT-29 7.73 µM | ACHN 42.2 µM | OVCAR-4 33.9 µM | RPMI-8226 15 µM | HOP-92 10.5 µM | PC-3 22.9 µM | COLO 205 5.25 µM | HL-60 4.03 µM | SK-MEL-5 5.77 µM | HOP-62 43.3 µM | Hs-578T 2.07 µM | HCT-116 4.54 µM | SF-268 72.6 µM | NCI-H226 77.8 µM | NCI-H522 2.1 µM | NCI/ADR-RES 13.3 µM | DU-145 39.2 µM | K562 4.65 µM | SN12C 68.9 µM | MCF7 4.57 µM | CCRF-CEM 13.7 µM | TK-10 14.4 µM | A549 37.2 µM | M14 7.48 µM | U-251 19.1 µM | 786-0 40 µM | MDA-MB-231 21.9 µM | IGROV-1 2.15 µM | RXF 393 18.5 µM | MDA-N 2.14 µM | MOLT-4 6.75 µM | CAKI-1 23.6 µM | BT-549 > 100 µM | SNB-19 6.46 µM | Malme-3M 7.5 µM | SK-MEL-28 9.75 µM | MDA-MB-435 2.65 µM | SK-MEL-2 31 µM | NCI-H460 24.7 µM | KM12 4.43 µM | A498 11.3 µM

CCC1(CC)C(=O)N(C(=O)c2cc(OC)c(OC)c(OC)c2)N(C(=O)c2cc(OC)c(OC)c(OC)c2)C1=O
> 50 µM: HCT-15
inactive: OVCAR-3 > 50 µM | OVCAR-8 > 50 µM | NCI-H23 > 50 µM | T47D > 50 µM | UACC-62 > 50 µM | EKVX > 50 µM | SW-620 > 50 µM | LOX IMVI > 50 µM | SF-295 24.8 µM | SNB-75 42.9 µM | SF-539 > 50 µM | OVCAR-5 > 50 µM | SK-OV-3 > 50 µM | UO-31 > 50 µM | UACC-257 > 50 µM | HT-29 > 50 µM | ACHN > 50 µM | OVCAR-4 > 50 µM | RPMI-8226 > 50 µM | HCC 2998 > 50 µM | PC-3 > 50 µM | COLO 205 > 50 µM | HL-60 28.5 µM | SK-MEL-5 46.1 µM | HOP-62 > 50 µM | Hs-578T > 50 µM | HCT-116 > 50 µM | SF-268 > 50 µM | NCI-H226 > 50 µM | NCI-H522 > 50 µM | NCI/ADR-RES > 50 µM | DU-145 > 50 µM | K562 > 50 µM | SN12C 21.8 µM | MCF7 > 50 µM | CCRF-CEM > 50 µM | TK-10 > 50 µM | A549 > 50 µM | M14 > 50 µM | U-251 > 50 µM | 786-0 > 50 µM | MDA-MB-231 > 50 µM | IGROV-1 > 50 µM | RXF 393 > 50 µM | MDA-N > 50 µM | CAKI-1 > 50 µM | BT-549 > 50 µM | SNB-19 > 50 µM | Malme-3M > 50 µM | SK-MEL-28 > 50 µM | MDA-MB-435 > 50 µM | SK-MEL-2 > 50 µM | NCI-H460 > 50 µM | KM12 > 50 µM | A498 > 50 µM

COC(=O)C1(NC(=O)C(CC(=O)OCc2ccccc2)NC(=O)OC(C)(C)C)CC1 (stereo not drawn) (Boc-[ξD](OBn)-[Ac3c]-OMe)
> 100 µM: HCT-15
inactive: OVCAR-3 > 100 µM | OVCAR-8 > 100 µM | NCI-H23 > 100 µM | T47D > 100 µM | UACC-62 1.58 µM | EKVX > 100 µM | SW-620 > 100 µM | LOX IMVI > 100 µM | SF-295 > 100 µM | SNB-75 > 100 µM | SF-539 > 100 µM | OVCAR-5 > 100 µM | SK-OV-3 19.6 µM | UO-31 > 100 µM | UACC-257 > 100 µM | HT-29 > 100 µM | ACHN > 100 µM | OVCAR-4 > 100 µM | RPMI-8226 > 100 µM | HOP-92 > 100 µM | PC-3 > 100 µM | COLO 205 > 100 µM | SK-MEL-5 > 100 µM | HOP-62 > 100 µM | Hs-578T > 100 µM | HCT-116 > 100 µM | SF-268 > 100 µM | NCI-H226 > 100 µM | NCI-H522 > 100 µM | NCI/ADR-RES > 100 µM | DU-145 > 100 µM | K562 > 100 µM | SN12C > 100 µM | MCF7 > 100 µM | CCRF-CEM > 100 µM | TK-10 > 100 µM | A549 > 100 µM | M14 > 100 µM | U-251 > 100 µM | 786-0 > 100 µM | MDA-MB-231 > 100 µM | IGROV-1 > 100 µM | RXF 393 > 100 µM | MDA-N > 100 µM | MOLT-4 > 100 µM | CAKI-1 > 100 µM | BT-549 > 100 µM | SNB-19 > 100 µM | Malme-3M > 100 µM | SK-MEL-28 > 100 µM | MDA-MB-435 > 100 µM | SK-MEL-2 > 100 µM | NCI-H460 > 100 µM | KM12 > 100 µM | A498 > 100 µM
